The term melting point denotes the temperature of the solid-liquid transition.

`Cl.Cn1c(CCCC(=O)O)nc2ccc(N(CCCl)CCCl)cc21`: the melting point was in the range of 174 to 176.5 °C.

For the origin of these results see US10526290B2, “Bendamustine derivatives and related compounds, and medical use thereof in cancer therapy” (SYNBIAS PHARMA AG, priority 2012, dated 2020).
